# According to US10207011B2, “Methods, systems, and devices for an invertebrate model of traumatic brain injury” (WISCONSIN ALUMNI RESEARCH FOUNDATION, priority 2013, dated 2019):
# Tested on: w^1118 flies
# Assay: Mortality after standard TBI protocol in aspirin-fed flies
# Assay type: in vivo, Drosophila
# Conditions: 0-3-day old w^1118 flies cultured four days on food with 0.4 ml aspirin (200 mg/ml in DMSO) before standard TBI protocol; FIG. 5
# Excerpt: Based on the data described in Example 2, we designed a standard TBI protocol for administering controlled impacts to generate primary injuries. The standard TBI protocol consisted of four impacts with five min recovery intervals between impacts. Reproducibility and rapidity were the driving forces behind the choice of protocol parameters. […] As a proof of concept for identifying an agent that could reduce the severity of an impact-associated phenotype, e.g., lethality, we tested whether, the non-steroidal anti-inflammatory drug, aspirin, affects TBI outcomes. Flies were treated with aspirin by feeding and then subjected to the standard TBI protocol. 0.4 ml of aspirin (200 mg/ml in DMSO) or DMSO only was added to vials with food and allowed to absorb into the food for two hours. 0-3-day old w^1118 flies, with an approximately equal number of male and female flies, were cultured on the food for four days. Flies were then left untreated or subjected to the standard TBI protocol. […] Thus, aspirin pre-treatment raises the primary injury threshold.
compound,measurement,value
CC(=O)Oc1ccccc1C(=O)O [aspirin],"mortality 24 hours after a controlled impact, relative to DMSO-treated flies",lower mortality than the DMSO-treated flies
